According to ChEMBL document CHEMBL3507680, “University of Dundee, Gates Library screen for HepG2 cell viability”:

Experiment: Human HepG2 cell viability assay in 384 well format
Assay type: toxicity, cell-based
Set-up: dose 125 nL, time 70.5 hour; cytotoxicity at 70.5 h: concentration not given beside the values
Settings: HepG2 cells, read-out: Inhibition

Structure (SMILES) | cytotoxicity at 70.5 h
Cc1nnc([C@@H]2CC[C@@H]3[C@@H](CCN3S(=O)(=O)c3cccnc3)O2)o1 | 0.577%
CCN1C[C@H]2C[C@H](C(=O)NCc3cccnc3)[C@@H](C1)O2 | 3.07%
CC(C)CCN1Cc2c(C(=O)O)ncn2-c2ccccc2S1(=O)=O | 30.1%
Cc1nc2c(c(NC3CC3)n1)CCN(C(=O)C(C)(C)O)CC2 | 2.5%
O=C(c1ccncc1F)N1CCc2ncnc(-c3ccncc3)c2CC1 | 6.15%
Cc1nc(CN2C(=O)CC[C@@H]3[C@H]2CCN3C(=O)NC2CC2)cs1 | 21.8%
O=C(C1CCOCC1)N1C[C@@H]2[C@@H](C1)OCC(=O)N2CC1CC1 | -6.04%
CC(=O)NCC(=O)N1Cc2nccn2CC(CN2CCCC2)C1 (stereo not given) | 0.0844%
CC(C)CN1Cc2c(C(=O)N(C)C)ncn2-c2ccccc2S1(=O)=O | -6.58%
CN(C)C(=O)COC1COC2(CCN(S(C)(=O)=O)CC2)C1 (stereo not given) | -6.01%
Cc1occc1C(=O)N1CCc2c(COCC3CC3)cncc2C1 | -2.87%
O=C(CC1CC1)NCc1cn2c(n1)CN(C(=O)c1cccnc1)CC2 | -7.69%
COCCC(=O)N1CCC2(COCc3cnc(N4CCOCC4)nc32)C1 (stereo not given) | -15.1%
CC(=O)N1CC[C@@H]2CN(C(=O)c3ccco3)CCO[C@@H]2C1 | -29.3%
O=C(c1ccsc1)N1CCN2C[C@H](OCc3cccnc3)C[C@H]2C1 | -13.4%
Cn1cccc1C(=O)N1CCCn2nc(CCC(=O)NC3CC3)cc2C1 | 9.42%
COc1cccc(CC2CN(C3CCC3)CCO2)c1 (stereo not given) | 0.0358%
CC(C)c1cc(C(=O)N2CCOC3(CCCC3)C2)no1 | -21.7%
COCC(=O)N1CCCC(C(=O)NCc2cc(CC(C)C)on2)C1 (stereo not given) | 27%
O=C(NC1CC1)c1ccnc(N2CCOC(c3ccc(Cl)cc3)C2)c1 (stereo not given) | 7.4%
CC1(c2ccccc2)CCCN(Cc2cncn2C2CCCC2)C1 (stereo not given) | -13.6%
Cc1nccc(N2CCCC(c3nnc(Cn4ccnc4C)n3C)C2)n1 (stereo not given) | 16.3%

Structure (SMILES) | cytotoxicity at 70.5 h
O=c1cc(-c2cc(O)cc(CCC3CCCCN3)c2)cc[nH]1 (stereo not given) | -6.48%
CNc1ncccc1C(=O)N1CCC2(CCN(C)C2)CC1 | 2.78%
Cc1nc(N[C@H]2COC[C@@H]2N2CCCCC2)c2c(C)nn(C)c2n1 | -4.88%
CCn1nc(C)cc1C(=O)N1C[C@@H](CN(C)C)[C@@H](CO)C1 | -2.98%
COc1ncccc1C(=O)N1CCc2c(ncnc2N2CCOCC2)C1 | -3.85%
COCC1CCCN(C(=O)c2ccc(N(C)Cc3cnn(C)c3)nc2)C1 (stereo not given) | 26%
CC(C)[C@@H]1CN(Cc2ccccc2C#N)C[C@H]1NC(=O)N(C)C | -1.2%
COCc1cccc(C(=O)N2C[C@H]3CC[C@@H]2CN(Cc2cscn2)C3)n1 | 34.5%
CCC(NC(=O)c1cc(NC(C)=O)ccc1Cl)c1cc(C)ccn1 (stereo not given) | 9.03%
CCN(C)C(=O)c1coc(COc2ccccc2)n1 | -4.16%
CC(=O)c1cnc(N(C)Cc2cnc3ccccc3n2)nc1C | -5.98%
Cc1nc(C(=O)NCCS(=O)(=O)N2CCCC2)cs1 | 13.7%
CN(CCc1ccccc1)Cc1nc(Cc2cccc(F)c2)no1 | 0.246%
CC(C)(C)c1ccn(C2(C(=O)O)CCN(c3ccncc3F)CC2)n1 | -8.89%
O=S1(=O)COCCN1CCOc1ccccc1 | 17.3%
COc1ccccc1CN(Cc1cccnc1)Cc1c[nH]c(C)n1 | 8.36%
c1cc2c(cc1-c1noc3c1CN(C1CCSC1)CC3)OCO2 (stereo not given) | -12.7%
CS(=O)(=O)NCCC(=O)N1Cc2cnc(-c3ccccc3)nc2C1 | 2.41%
O=C(c1cc(Cl)ccc1OC1CCN(C2CCCC2)CC1)N1CCCO1 | 11.8%
Cc1ccc(C(=O)N2CCSCC2)cc1N1CCNC1=O | -5.73%
O=C(NCCc1ccncc1)c1ccc(N2CCOCC2)cc1 | 4.27%
Cc1nc(C)n(CCCNC(=O)C(C)n2ccnc2C(C)C)n1 (stereo not given) | -5.67%

Structure (SMILES) | cytotoxicity at 70.5 h
Cc1nn(C)c2nc(-c3ccccn3)nc(NC[C@@H]3CCCO3)c12 | 2.37%
CN1CCCN(C(=O)c2cccc(S(=O)(=O)NCC3(C)COC3)c2)CC1 | -0.00641%
CC(C)N1CCC(C(=O)N2CCc3c(nc(CC4CC4)[nH]c3=O)C2)CC1 | -7.62%
O=C(c1c[nH]c(=O)[nH]1)N1CCCC2(CCC(=O)N(C3CCCC3)C2)C1 (stereo not given) | 1.3%
O=C(NCCc1noc(C2CCCO2)n1)c1cn2ccsc2n1 (stereo not given) | -4.56%
CO[C@@H](C(=O)NC1CCOCC1)c1ccccc1 | 9.39%
CCc1ccc(CN2CCC(=O)N(CC3CC3)C(C(C)C)C2)nc1 (stereo not given) | -11.4%
CC(C)=CCCC(C)CN1CCC(n2cc(C(=O)NCCO)nn2)CC1 (stereo not given) | -4.56%
O=c1cc(N2CCCCC2)cnn1C[C@H](O)CO | -3.44%
COCC[C@]1(O)CCN(Cc2nc(C)c(C)s2)C[C@H]1C | -7.5%
CCOc1ccc2[nH]c(=O)c(CN3CCCC(CO)(CO)C3)cc2c1 | -4.6%
Cn1cc(CN2CCCC(CCc3ccc(F)cc3)C2)cn1 (stereo not given) | 8.18%
CSCCC(=O)N1CCCC(c2ncc[nH]2)C1 (stereo not given) | -21.7%
CSCc1noc(CNC(=O)c2cc(C)c(C)[nH]c2=O)n1 | -5.2%
CCCn1cnnc1CN(C)C(=O)C1CCC(=O)N(C2CCCC2)C1 (stereo not given) | -3.21%
CCN(C)C(=O)Cn1c(-c2ccco2)nn(-c2ccccc2OC)c1=O | 0.98%
c1cnc2c(-c3nccn3C[C@@H]3CCCN4CCCC[C@H]34)cccc2c1 | 2.23%
c1ccc(C2CCCN2Cc2nc(-c3cnccn3)no2)nc1 (stereo not given) | -6.26%
CC(C)Oc1cccc(F)c1C(C(=O)O)N(C)Cc1ccon1 (stereo not given) | 0.036%
CCCN1CC(NC(=O)Nc2nc(C)n(C(C)C)n2)CC1=O (stereo not given) | -3.82%
Cc1cc(CNC(=O)c2ccc(C(C)N3CCCCC3)o2)[nH]n1 (stereo not given) | -5.86%
CCN1CC(C(=O)N2CCN(c3cnn(C)c(=O)c3)CC2)CCC1=O (stereo not given) | -9.64%

Structure (SMILES) | cytotoxicity at 70.5 h
CN(C)CCn1ccnc1C1CCN(C(=O)CCc2cccnc2)CC1 | -4.1%
CCN1Cc2nc(OC)c(CNC(=O)CCC3CCCC3)cc2C1=O | -11.1%
Cn1cc(CN2CCCC(O)C2)c(-c2ccccc2F)n1 (stereo not given) | -6.51%
NC(=O)c1ccc(C2CCCN2C(=O)Cn2nc3ccccc3n2)s1 (stereo not given) | 8.36%
Cc1cc(C)n(CCC2CC(=O)Nc3cc4[nH]ncc4cc32)n1 (stereo not given) | -6.11%
O=C1N(CCCc2ccccc2)CCCC1(O)CN1CCC(CO)CC1 (stereo not given) | -9.35%
Cc1nnc(CCNC(=O)Nc2ccc(S(C)(=O)=O)cc2)[nH]1 | 35.6%
Cc1c(Cl)cccc1NC(=O)N1CCC2(CC1)NC(=O)CC2C(=O)O (stereo not given) | 1.01%
O=C(CN1CCc2ccccc2C1)NCc1cc2n(n1)CCCNC2 | -6.65%
CCC(CO)N(Cc1ccco1)C(=O)c1ccccc1NC (stereo not given) | 0.632%
CC(C)Oc1cccc2c1c(NC(=O)CN(C)C)nn2CC(F)(F)F | -8.54%
CCn1cnnc1CN(C)C(=O)c1cc(COc2cccc(F)c2)[nH]n1 | 10.8%
O=C(NC1CC1)C1CN(Cc2ccc3c(c2)OCCO3)CCN1 (stereo not given) | -11.1%
O=C(O)[C@@H]1CN(C(=O)CN2CCCCCC2)C[C@H]1c1ccccc1 | 1.47%
Cc1ccc(-c2ccnc(NC(c3ncccc3C)C3CC3)n2)c(C)n1 (stereo not given) | -3.87%
Cc1cnc(N)nc1N1CCN(CCCO)CC1 | -10.3%
Cc1ccccc1-c1ncc(CNCc2csc(C(C)C)n2)s1 | -5.31%
Cc1ccc(CN(Cc2ccccn2)C(=O)[C@H]2CC[C@@H](N)C2)s1 | -10.2%
CC(C)N(C)S(=O)(=O)c1ccc2c(c1)CCN(C(=O)c1cnccn1)C2 | -5.23%
O=C(c1cc(=O)n(-c2ccccc2)[nH]1)N1CCOCC(O)C1 (stereo not given) | 22.9%
c1ccc(-c2nc3c(c(NCCn4ccnn4)n2)CCNCC3)nc1 | -6.02%
COc1ccc(OCCN2CCOCS2(=O)=O)cc1 | -6.02%

Structure (SMILES) | cytotoxicity at 70.5 h
O=C1NCC(c2ccc(Cl)cc2)Cc2[nH]c(CCN3CCOCC3)nc21 (stereo not given) | -12.7%
CC(C)n1ccnc1C1CCN(C(=O)N2CCCC2)CC1 | -9.54%
O=C(NC1CC1)c1ccnc(N2CCOC(c3ccc(Cl)c(Cl)c3)C2)c1 (stereo not given) | 9.19%
CC(=O)N1CCN(C[C@H]2CC[C@@H](Cc3ccc4ncccc4c3)O2)CC1 | -10.6%
CCCN1C[C@H]2CC[C@@H]1CN(C(=O)Cn1c(C)cc(C)nc1=O)C2 | -14.9%
CC(C)=CCN1CCN(CCCOc2ccccc2)[C@H]2CS(=O)(=O)C[C@H]21 | -4.88%
O=C(CN1CCNCC1)NCc1ccc2sccc2c1 | 3.14%
CC(C)OCc1ncn2c1CN(Cc1cccs1)CCC2 | 1.83%
CN1C(=O)C2(CCN(CC3CC3)CC2)c2ccccc21 | -2.61%
O=C(N1CCCC1)N1Cc2nccn2CC(CN2CCCC2)C1 (stereo not given) | -8.56%
CC(C)OCc1ncn2c1CN(Cc1ccc(F)cc1)CCC2 | -3.8%
COCCN1CCC2(COCc3cnc(N4CCOCC4)nc32)C1 (stereo not given) | 28.1%
CN(C)C(=O)NC1COC2(CCN(Cc3ccccc3)CC2)C1 (stereo not given) | 27.7%
CN(C)C(=O)c1cnc2n1CCN(Cc1ccccc1)C2 | -15.3%
CN(C)[C@@H]1CCN(C(=O)Cc2ccc(F)cc2)[C@H]1Cc1cnn(C)c1 | -10.4%
Cc1ccc(CN2CCn3c(C(=O)N(C)C)cnc3C2)s1 | -20.4%
CC(C)CN1CCC2(C1)CN(c1ncccn1)C2 | -11.9%
COCCN1CCC2(CCCN(c3ncccn3)C2)C1 (stereo not given) | -12.6%
CN(C)[C@@H]1CCN(C(=O)NC2CCCC2)[C@H]1Cc1cnn(C)c1 | -15.8%
Cc1ccc(CN2CC[C@H]3[C@@H]2CCC(=O)N3CCN2CCCC2)s1 | 11.4%
CCC(=O)N1Cc2nccn2CC(CN(C)Cc2cccnc2)C1 (stereo not given) | -17.9%
O=C(c1cccc(F)c1)N1CCN2C[C@H](OCc3cccnc3)C[C@H]2C1 | -19%
